# Measurements: ChEMBL document CHEMBL3885881, “DrugMatrix”
# Species: Rattus norvegicus
# Test: DrugMatrix - Regimen: Daily Repeat
# Assay type: toxicity, organism-based, Sprague-Dawley
# Set-up: regimen Daily Repeat, gender Male, age 6-8 weeks
# Details: in vivo, po, 31 mg/kg, route oral GAVAGE, dose level Low, vehicle .5 % CMC; for ABSOLUTE BASOPHIL / ABSOLUTE EOSINOPHIL / ABSOLUTE LYMPHOCYTE / ABSOLUTE MONOCYTE / ABSOLUTE SEGMENTED NEUTROPHIL / BASOPHIL / EOSINOPHIL / ERYTHROCYTE COUNT / HEMATOCRIT / HEMOGLOBIN / LEUKOCYTE COUNT / LYMPHOCYTE / MEAN CORPUSCULAR HEMOGLOBIN / MEAN CORPUSCULAR HEMOGLOBIN CONCENTRATION / MEAN CORPUSCULAR VOLUME / MONOCYTE / NEUTROPHIL / NUCLEATED RED BLOOD CELLS / PLATELET COUNT: tissue Blood; for ALANINE AMINOTRANSFERASE / ALBUMIN / ALKALINE PHOSPHATASE / ASPARTATE AMINOTRANSFERASE / BLOOD UREA NITROGEN / CARBON DIOXIDE / CHLORIDE / CHOLESTEROL / CREATINE PHOSPHOKINASE / CREATININE / GLUCOSE / LACTATE DEHYDROGENASE / LIPASE / PHOSPHORUS / POTASSIUM / SODIUM / TOTAL BILIRUBIN / TOTAL PROTEIN / URIC ACID: tissue Plasma
compound,measurement,setting,value
O=C1CN(/N=C/c2ccc([N+](=O)[O-])o2)C(=O)N1 [NITROFURANTOIN],ABSOLUTE BASOPHIL,"72 h, time 3 day",0 CELLS/uL
same,ABSOLUTE EOSINOPHIL,"72 h, time 3 day",106.67 CELLS/uL
same,ABSOLUTE LYMPHOCYTE,"72 h, time 3 day",13250.33 CELLS/uL
same,ABSOLUTE MONOCYTE,"72 h, time 3 day",160 CELLS/uL
same,ABSOLUTE SEGMENTED NEUTROPHIL,"72 h, time 3 day",1583 CELLS/uL
same,BASOPHIL,"72 h, time 3 day",0%
same,EOSINOPHIL,"72 h, time 3 day",0.67%
same,ERYTHROCYTE COUNT,"72 h, time 3 day",5.65 x10E6/uL
same,HEMATOCRIT,"72 h, time 3 day",35.43%
same,HEMOGLOBIN,"72 h, time 3 day",13.47 G/DL
same,LEUKOCYTE COUNT,"72 h, time 3 day",15.1 x10E3/uL
same,LYMPHOCYTE,"72 h, time 3 day",88%
same,MEAN CORPUSCULAR HEMOGLOBIN,"72 h, time 3 day",23.9 pg
same,MEAN CORPUSCULAR HEMOGLOBIN CONCENTRATION,"72 h, time 3 day",38.03 G/DL
same,MEAN CORPUSCULAR VOLUME,"72 h, time 3 day",62.77 fL
same,MONOCYTE,"72 h, time 3 day",1%
same,NEUTROPHIL,"72 h, time 3 day",10.33%
same,NUCLEATED RED BLOOD CELLS,"72 h, time 3 day",0.33 /100WBC
same,PLATELET COUNT,"72 h, time 3 day",1275.33 x10E3/uL
same,ALANINE AMINOTRANSFERASE,"72 h, time 3 day",49.33 u/L
same,ALBUMIN,"72 h, time 3 day",4.4 G/DL
same,ALKALINE PHOSPHATASE,"72 h, time 3 day",440.67 u/L
same,ASPARTATE AMINOTRANSFERASE,"72 h, time 3 day",85 u/L
same,BLOOD UREA NITROGEN,"72 h, time 3 day",15.33 mg/dL
same,CARBON DIOXIDE,"72 h, time 3 day",22.67 mmol/L
same,CHLORIDE,"72 h, time 3 day",105.67 MEQ/L
same,CHOLESTEROL,"72 h, time 3 day",74.67 mg/dL
same,CREATINE PHOSPHOKINASE,"72 h, time 3 day",232.33 u/L
same,CREATININE,"72 h, time 3 day",0.25 mg/dL
same,GLUCOSE,"72 h, time 3 day",142.33 mg/dL
same,LACTATE DEHYDROGENASE,"72 h, time 3 day",280 u/L
same,LIPASE,"72 h, time 3 day",9.67 u/L
same,PHOSPHORUS,"72 h, time 3 day",13.57 mg/dL
same,POTASSIUM,"72 h, time 3 day",6.78 MEQ/L
same,SODIUM,"72 h, time 3 day",147.27 MEQ/L
same,TOTAL BILIRUBIN,"72 h, time 3 day",0.27 mg/dL
same,TOTAL PROTEIN,"72 h, time 3 day",6.1 G/DL
same,URIC ACID,"72 h, time 3 day",2.1 mg/dL
same,ABSOLUTE BASOPHIL,"120 h, time 5 day",0 CELLS/uL
same,ABSOLUTE EOSINOPHIL,"120 h, time 5 day",48 CELLS/uL
same,ABSOLUTE LYMPHOCYTE,"120 h, time 5 day",14184 CELLS/uL
same,ABSOLUTE MONOCYTE,"120 h, time 5 day",368 CELLS/uL
same,ABSOLUTE SEGMENTED NEUTROPHIL,"120 h, time 5 day",1000 CELLS/uL
same,BASOPHIL,"120 h, time 5 day",0%
same,EOSINOPHIL,"120 h, time 5 day",0.33%
same,ERYTHROCYTE COUNT,"120 h, time 5 day",5.46 x10E6/uL
same,HEMATOCRIT,"120 h, time 5 day",34.3%
same,HEMOGLOBIN,"120 h, time 5 day",13.23 G/DL
same,LEUKOCYTE COUNT,"120 h, time 5 day",15.6 x10E3/uL
same,LYMPHOCYTE,"120 h, time 5 day",90.67%
same,MEAN CORPUSCULAR HEMOGLOBIN,"120 h, time 5 day",24.3 pg
same,MEAN CORPUSCULAR HEMOGLOBIN CONCENTRATION,"120 h, time 5 day",38.57 G/DL
same,MEAN CORPUSCULAR VOLUME,"120 h, time 5 day",62.93 fL
same,MONOCYTE,"120 h, time 5 day",2.33%
same,NEUTROPHIL,"120 h, time 5 day",6.67%
same,NUCLEATED RED BLOOD CELLS,"120 h, time 5 day",0.33 /100WBC
same,PLATELET COUNT,"120 h, time 5 day",1440 x10E3/uL
same,ALANINE AMINOTRANSFERASE,"120 h, time 5 day",44.67 u/L
same,ALBUMIN,"120 h, time 5 day",4.27 G/DL
same,ALKALINE PHOSPHATASE,"120 h, time 5 day",262 u/L
same,ASPARTATE AMINOTRANSFERASE,"120 h, time 5 day",72.33 u/L
same,BLOOD UREA NITROGEN,"120 h, time 5 day",13.67 mg/dL
same,CARBON DIOXIDE,"120 h, time 5 day",25.67 mmol/L
same,CHLORIDE,"120 h, time 5 day",106.33 MEQ/L
same,CHOLESTEROL,"120 h, time 5 day",58.33 mg/dL
same,CREATINE PHOSPHOKINASE,"120 h, time 5 day",186 u/L
same,CREATININE,"120 h, time 5 day",0.19 mg/dL
same,GLUCOSE,"120 h, time 5 day",159 mg/dL
same,LACTATE DEHYDROGENASE,"120 h, time 5 day",76.67 u/L
same,LIPASE,"120 h, time 5 day",11.67 u/L
same,PHOSPHORUS,"120 h, time 5 day",12.87 mg/dL
same,POTASSIUM,"120 h, time 5 day",6.41 MEQ/L
same,SODIUM,"120 h, time 5 day",147.13 MEQ/L
same,TOTAL BILIRUBIN,"120 h, time 5 day",0.17 mg/dL
same,TOTAL PROTEIN,"120 h, time 5 day",5.97 G/DL
same,URIC ACID,"120 h, time 5 day",2.1 mg/dL
